“And” between values parts separate entries of the source, which are not always exact repeats. Identical values can stand only once. The source made the active and inactive calls. Rule for the calls: active = viability on the fitted dose curve at most 10% of control; inactive = the rest.
System: SW 1271 complex tumor spheroid viability
Assay: Anticancer human tumor SW 1271 cell line growth inhibition;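 for IC50: spheroids exposed to agents for seven days before readout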;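 for viability, T/C: spheroids exposed to agents for seven days before readout; percent of DMSO vehicle control luminescence so 100% = vehicle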
Conditions: for viability, T/C: stronger effect = lower value
How it was run: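 Complex tumor spheroids combined malignant cells with endothelial cells and mesenchymal stem cells. DNA-damaging drugs and DNA repair inhibitors were tested alone and in combination, at half-log dilutions down from clinical Cmax (top 10 microM if Cmax unknown), 0.25% DMSO final.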

[1] = curve of first compound, second compound 1 µM
[2] = curve of first compound, second compound 3.16 µM
[3] = curve of first compound, second compound 10 µM
[4] = curve of first compound, second compound 31.6 µM
[5] = curve of first compound, second compound 100 µM
[6] = second compound 1 µM, first compound 0.0316 µM
[7] = second compound 1 µM, first compound 0.1 µM
[8] = second compound 1 µM, first compound 0.316 µM
[9] = second compound 1 µM, first compound 1 µM
[10] = second compound 1 µM, first compound 3.16 µM
[11] = second compound 1 µM, first compound 10 µM
[12] = second compound 3.16 µM, first compound 0.0316 µM
[13] = second compound 3.16 µM, first compound 0.1 µM
[14] = second compound 3.16 µM, first compound 0.316 µM
[15] = second compound 3.16 µM, first compound 1 µM
[16] = second compound 3.16 µM, first compound 3.16 µM
[17] = second compound 3.16 µM, first compound 10 µM
[18] = second compound 10 µM, first compound 0.0316 µM
[19] = second compound 10 µM, first compound 0.1 µM
[20] = second compound 10 µM, first compound 0.316 µM
[21] = second compound 10 µM, first compound 1 µM
[22] = second compound 10 µM, first compound 3.16 µM
[23] = second compound 10 µM, first compound 10 µM
[24] = second compound 31.6 µM, first compound 0.0316 µM
[25] = second compound 31.6 µM, first compound 0.1 µM
[26] = second compound 31.6 µM, first compound 0.316 µM
[27] = second compound 31.6 µM, first compound 1 µM
[28] = second compound 31.6 µM, first compound 3.16 µM
[29] = second compound 31.6 µM, first compound 10 µM
[30] = second compound 100 µM, first compound 0.0316 µM
[31] = second compound 100 µM, first compound 0.1 µM
[32] = second compound 100 µM, first compound 0.316 µM
[33] = second compound 100 µM, first compound 1 µM
[34] = second compound 100 µM, first compound 3.16 µM
[35] = second compound 100 µM, first compound 10 µM

Cn1ncnc1[C@H]1c2n[nH]c(=O)c3cc(F)cc(c23)N[C@@H]1c1ccc(F)cc1 + Cn1nnc2c(C(N)=O)ncn2c1=O
9.72 nM: IC50 [1]
< 9.49 nM: IC50 [2] | IC50 [3] | IC50 [4] | IC50 [5]
inactive: viability, T/C (second compound 1 µM, first compound 0.00949 µM) 50.5% | viability, T/C (second compound 1 µM, first compound 0.03 µM) 28.1% | viability, T/C (second compound 1 µM, first compound 0.0949 µM) 23.4% | viability, T/C (second compound 1 µM, first compound 0.3 µM) 26.2% | viability, T/C (second compound 1 µM, first compound 0.949 µM) 25.8% | viability, T/C (second compound 1 µM, first compound 3 µM) 20.7% | viability, T/C (second compound 3.16 µM, first compound 0.00949 µM) 41.6% | viability, T/C (second compound 3.16 µM, first compound 0.03 µM) 25.2% | viability, T/C (second compound 3.16 µM, first compound 0.0949 µM) 29.2% | viability, T/C (second compound 3.16 µM, first compound 0.3 µM) 22.1% | viability, T/C (second compound 3.16 µM, first compound 0.949 µM) 28.2% | viability, T/C (second compound 3.16 µM, first compound 3 µM) 22% | viability, T/C (second compound 10 µM, first compound 0.00949 µM) 32.9% | viability, T/C (second compound 10 µM, first compound 0.03 µM) 25.5% | viability, T/C (second compound 10 µM, first compound 0.0949 µM) 25.6% | viability, T/C (second compound 10 µM, first compound 0.3 µM) 28.6% | viability, T/C (second compound 10 µM, first compound 0.949 µM) 29.5% | viability, T/C (second compound 10 µM, first compound 3 µM) 20.1% | viability, T/C (second compound 31.6 µM, first compound 0.00949 µM) 27.1% | viability, T/C (second compound 31.6 µM, first compound 0.03 µM) 27.1% | viability, T/C (second compound 31.6 µM, first compound 0.0949 µM) 29.3% | viability, T/C (second compound 31.6 µM, first compound 0.3 µM) 28.5% | viability, T/C (second compound 31.6 µM, first compound 0.949 µM) 30.5% | viability, T/C (second compound 31.6 µM, first compound 3 µM) 22% | viability, T/C (second compound 100 µM, first compound 0.00949 µM) 29.8% | viability, T/C (second compound 100 µM, first compound 0.03 µM) 29.9% | viability, T/C (second compound 100 µM, first compound 0.0949 µM) 32.1% | viability, T/C (second compound 100 µM, first compound 0.3 µM) 32.8% | viability, T/C (second compound 100 µM, first compound 0.949 µM) 28.7% | viability, T/C (second compound 100 µM, first compound 3 µM) 19.9%

Cn1nnc2c(C(N)=O)ncn2c1=O
> 100000 nM and 20700 nM: IC50 (compound alone, run of 11/07/2019)
inactive: viability, T/C (compound 1 µM) 97% [middle of 10 runs] | viability, T/C (compound 3.16 µM) 103% [middle of 10 runs]

COc1ccc([C@@H](O)c2cc(-c3ncnc4cc(N5CCOCC5)ccc34)c(F)cc2Cl)nn1 + Cn1nnc2c(C(N)=O)ncn2c1=O
808 nM: IC50 [5]
1810 nM: IC50 [3]
1520 nM: IC50 [2]
1410 nM: IC50 [4]
active: viability, T/C [17] 10%
inactive: viability, T/C [6] 95.7% | viability, T/C [7] 89.6% | viability, T/C [8] 91.7% | viability, T/C [9] 39.6% | viability, T/C [10] 38.3% | viability, T/C [11] 11% | viability, T/C [12] 115% | viability, T/C [13] 97.8% | viability, T/C [14] 82.5% | viability, T/C [15] 60.7% | viability, T/C [16] 32.3% | viability, T/C [18] 97.1% | viability, T/C [19] 103% | viability, T/C [20] 85.2% | viability, T/C [21] 65.1% | viability, T/C [22] 36.2% | viability, T/C [23] 10.9% | viability, T/C [24] 101% | viability, T/C [25] 96.2% | viability, T/C [26] 93.4% | viability, T/C [27] 55.6% | viability, T/C [28] 30.3% | viability, T/C [29] 10.2% | viability, T/C [30] 83.8% | viability, T/C [31] 82.3% | viability, T/C [32] 66.8% | viability, T/C [33] 42.9% | viability, T/C [34] 28.6% | viability, T/C [35] 9.15%
799 nM: IC50 [1]

[2H]c1nc(C)nc([2H])c1-c1cc(NC[C@@H](C)c2cccc3c(C(=O)NC)ccnc23)ncn1 + Cn1nnc2c(C(N)=O)ncn2c1=O
inactive: viability, T/C [6] 91.1% | viability, T/C [7] 101% | viability, T/C [8] 95.1% | viability, T/C [9] 96.7% | viability, T/C [10] 98.9% | viability, T/C [11] 78.5% | viability, T/C [12] 104% | viability, T/C [13] 103% | viability, T/C [14] 103% | viability, T/C [15] 98.9% | viability, T/C [16] 96.8% | viability, T/C [17] 84.8% | viability, T/C [18] 101% | viability, T/C [19] 103% | viability, T/C [20] 92.4% | viability, T/C [21] 88.3% | viability, T/C [22] 87.2% | viability, T/C [23] 81.1% | viability, T/C [24] 110% | viability, T/C [25] 99.3% | viability, T/C [26] 100% | viability, T/C [27] 98.7% | viability, T/C [28] 98.3% | viability, T/C [29] 80.3% | viability, T/C [30] 93.1% | viability, T/C [31] 90.2% | viability, T/C [32] 86% | viability, T/C [33] 77.8% | viability, T/C [34] 73.8% | viability, T/C [35] 64.7%
> 10000 nM: IC50 [1] | IC50 [2] | IC50 [3] | IC50 [4] | IC50 [5]

COc1cc(C)[nH]c(=O)c1CN1CCc2c(Cl)cc(C(OC)C3COC3)c(Cl)c2C1=O (stereo unspecified) + COc1cc2c(cc1O)CCNC21CSC2c3c(OC(C)=O)c(C)c4c(c3C(COC1=O)N1C(O)C3Cc5cc(C)c(OC)c(O)c5C(C21)N3C)OCO4
< 31.6 nM: IC50 (curve of first compound, second compound 0.0003 µM) | IC50 (curve of first compound, second compound 0.000949 µM) | IC50 (curve of first compound, second compound 0.003 µM)
> 10000 nM: IC50 (curve of first compound, second compound 30 pM)
inactive: viability, T/C (second compound 30 pM, first compound 0.0316 µM) 101% | viability, T/C (second compound 30 pM, first compound 0.1 µM) 96% | viability, T/C (second compound 30 pM, first compound 0.316 µM) 96.4% | viability, T/C (second compound 30 pM, first compound 1 µM) 89.6% | viability, T/C (second compound 30 pM, first compound 3.16 µM) 86.8% | viability, T/C (second compound 30 pM, first compound 10 µM) 77.1% | viability, T/C (second compound 94.9 pM, first compound 0.0316 µM) 65.9% | viability, T/C (second compound 94.9 pM, first compound 0.1 µM) 75.3% | viability, T/C (second compound 94.9 pM, first compound 0.316 µM) 67.4% | viability, T/C (second compound 94.9 pM, first compound 1 µM) 64.4% | viability, T/C (second compound 94.9 pM, first compound 3.16 µM) 57% | viability, T/C (second compound 94.9 pM, first compound 10 µM) 40.9% | viability, T/C (second compound 0.0003 µM, first compound 0.0316 µM) 33.3% | viability, T/C (second compound 0.0003 µM, first compound 0.1 µM) 37% | viability, T/C (second compound 0.0003 µM, first compound 0.316 µM) 34.2% | viability, T/C (second compound 0.0003 µM, first compound 1 µM) 38.3% | viability, T/C (second compound 0.0003 µM, first compound 3.16 µM) 36.6% | viability, T/C (second compound 0.0003 µM, first compound 10 µM) 37.1%
5220 nM: IC50 (curve of first compound, second compound 94.9 pM)
active: viability, T/C (second compound 0.000949 µM, first compound 0.0316 µM) 5.93% | viability, T/C (second compound 0.000949 µM, first compound 0.1 µM) 5.35% | viability, T/C (second compound 0.000949 µM, first compound 0.316 µM) 4.91% | viability, T/C (second compound 0.000949 µM, first compound 1 µM) 3.61% | viability, T/C (second compound 0.000949 µM, first compound 3.16 µM) 7.88% | viability, T/C (second compound 0.000949 µM, first compound 10 µM) 2.67% | viability, T/C (second compound 0.003 µM, first compound 0.0316 µM) 0.11% | viability, T/C (second compound 0.003 µM, first compound 0.1 µM) 0.12% | viability, T/C (second compound 0.003 µM, first compound 0.316 µM) 0.11% | viability, T/C (second compound 0.003 µM, first compound 1 µM) 0.11% | viability, T/C (second compound 0.003 µM, first compound 3.16 µM) 0.11% | viability, T/C (second compound 0.003 µM, first compound 10 µM) 0.16%

CC(C)n1c(=O)n(C)c2cnc3cc(F)c(-c4ccc(OCCCN5CCCCC5)nc4)cc3c21
> 10000 nM and 9160 nM and 4080 nM: IC50 (curve of compound)
inactive: viability, T/C (compound 0.0316 µM) 94.1% and 98.9% and 79.6% | outcome (compound 0.1 µM) | viability, T/C (compound 0.1 µM) 86.3% and 78.7% | viability, T/C (compound 0.316 µM) 92.8% and 94.3% and 72.7% | viability, T/C (compound 1 µM) 94.6% and 83.5% and 71.3% | viability, T/C (compound 3.16 µM) 86.3% and 70.8% and 59.2% | viability, T/C (compound 10 µM) 60.3% and 48.2% and 20.9%

From PubChem BioAssay AID1845215 (Molecular Pharmacology Branch, DTP, NCI, 2023)
